The test system of assay [1] is ECHCG. The assay is described as follows: Example V post-emergence field trials in direct-seeded rice. It counts as in vivo, Echinochloa crus-galli. As to conditions: foliar, field trial Greece. The protocol: Multiple field trials were conducted under commercial grower field conditions in Tolima, Colombia; Thessaloniki, Greece; Bianze and Copiano, Italy; and Humphrey, Ark., USA. Trials sites were located in commercially grown fields of direct-seeded rice (Oryza sativa) using standard herbicide small plot research methodology. Plots varied from 2 to 3 meter (m)×5 to 8 m (width×length) with 4 replicates per treatment. The rice crop was grown using normal cultural practices for fertilization, seeding, watering, flooding and maintenance to ensure good growth of the crop and the weeds.
All treatments in the field trials were applied using a backpack compressed air/gas sprayer with flat fan nozzles (80° or 110°) calibrated to apply 187 to 300 L/ha spray volume at approximately 200-400 kPa nozzle pressure. Commercially available products of cyhalofop-butyl (Clincher 180EC, Clincher 200EC, and Clincher SF (285 gr ai/L EC)) were mixed in water at appropriate formulated product rates to achieve the desired rates based on a unit area of application (hectare) to achieve the desired rates as shown. Treatments were rate at 19 to 58 days after application (DAA) as compared to the untreated control plants. Visual weed control was scored on a scale of 0 to 100 percent where 0 corresponds to no injury and 100 corresponds to complete kill. […]

Assay [2] has as its system ECHCG. The assay is described as follows: Example VI in-water applied ternary mixtures, greenhouse, transplanted paddy rice weeds. It counts as in vivo, Echinochloa crus-galli (L.) Beauv. A digest of the protocol:
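Compound A (SC, acid-equivalent basis) alone or with cyhalofop-R-butyl or metamifop plus a third herbicide, injected into paddy water of greenhouse-grown transplanted rice and weeds at 1st–4th leaf stage (~29/26 °C). Visual injury scored 0–100% after ~3 weeks vs untreated; expected mixture effects by Colby's equation.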

Each structure is given as a SMILES string.

The record followed here is patent US9232796B2, “Herbicidal compositions comprising 4-amino-3-chloro-5-fluoro-6-(4-chloro-2-fluoro-3-methoxyphenyl) pyridine-2-carboxylic acid or a derivative thereof and acetyl-CoA carboxylase (ACCase) inhibitors” (DOW AGROSCIENCES LLC, priority 2012, dated 2016).

With `CCCCOC(=O)[C@@H](C)Oc1ccc(Oc2ccc(C#N)cc2F)cc1` [Cyhalofop-butyl, butyl(2R)-2-[4-(4-cyano-2-fluorophenoxy)phenoxy]propanoate, reference compound], the “Visual Weed Control (%) - 55-58 DAA ECHCG Obs” value in the assay on ECHCG [1] (300 gai/ha) was 29%. Besides, the “Visual Weed Control (%) - 21 DAA ECHCG Obs” value in the assay with ECHCG [2] (22.5 gai/ha, first set) was found to be 0%; with ECHCG [2] (22.5 gai/ha, first sub-table) it was 0%; in the assay on ECHCG [2] (45 gai/ha), 30%; in the assay on ECHCG [2] (45 gai/ha, first set), 3%; in the assay with ECHCG [2] (45 gai/ha, first sub-table), 3%; in the assay on ECHCG [2] (45 gai/ha, second set), 30%. Also, the “Visual Weed Control (%) - 21 DAA ECHCG Obs” value is reported as 30% with ECHCG [2] (45 gai/ha, second sub-table); 30% in the assay with ECHCG [2] (Table 67, 45 gai/ha, 21 DAA); 30% in the assay with ECHCG [2] (Table 68, 45 gai/ha, 21 DAA).

`COc1c(Cl)ccc(-c2nc(C(=O)OCc3ccccc3)c(Cl)c(N)c2F)c1F` [Compound A Benzyl Ester, benzyl ester of 4-amino-3-chloro-5-fluoro-6-(4-chloro-2-fluoro-3-methoxy-phenyl)pyridine-2-carboxylic acid]: in the assay with ECHCG [1] (24 gae/ha), the “Visual Weed Control (%) - 55-58 DAA ECHCG Obs” value was found to be 6%. In addition, the “Visual Weed Control (%) - 21 DAA ECHCG Obs” value is recorded as 0% in the assay with ECHCG [2] (1.09 gae/ha, first set); 0% in the assay on ECHCG [2] (1.09 gae/ha, first sub-table); 7% in the assay with ECHCG [2] (2.19 gae/ha, first set); 7% with ECHCG [2] (2.19 gae/ha, first sub-table); 25% in the assay on ECHCG [2] (4 gae/ha); 25% in the assay with ECHCG [2] (4 gae/ha, second set). Further, the “Visual Weed Control (%) - 21 DAA ECHCG Obs” value in the assay with ECHCG [2] (4 gae/ha, second sub-table) is reported as 25%; in the assay on ECHCG [2] (8 gae/ha), 45%; in the assay on ECHCG [2] (8 gae/ha, second set), 45%; in the assay with ECHCG [2] (8 gae/ha, second sub-table), 45%; with ECHCG [2] (16 gae/ha), 99%; with ECHCG [2] (16 gae/ha, second set) it was 99%. The “Visual Weed Control (%) - 21 DAA ECHCG Obs” value with ECHCG [2] (16 gae/ha, second sub-table) is listed as 99%; in the assay with ECHCG [2] (Table 67, 4 gae/ha, 21 DAA) it was 25%; in the assay on ECHCG [2] (Table 68, 4 gae/ha, 21 DAA), 25%; in the assay with ECHCG [2] (Table 68, 8 gae/ha, 21 DAA), 45%; in the assay on ECHCG [2] (Table 68, 16 gae/ha, 21 DAA), 99%.
